Measured values taken from ChEMBL document CHEMBL1158666, “Carmabins A and B, new lipopeptides from the Caribbean cyanobacterium Lyngbya majuscula” (J Nat Prod, 1998).
Active and inactive are the calls of the source. The calls are words filed in the database; no cut-off is given here. Square brackets hold non-standard residues; d marks the D form. Peptide text beside a SMILES is read from it. * marks the point of attachment. NMeY = CN[C@@H](Cc1ccc(O)cc1)C(=O)O; NMeF = CN[C@@H](Cc1ccccc1)C(=O)O; X2 = CC(=O)CCCCC(C)CC(C)C(=O)*; X1 = C#CCCCCC(C)CC(C)C(=O)*; NMeA = CN[C@@H](C)C(=O)O

Tested on: NCI60
Experiment: Cytotoxicity against human NCI60 cells
Assay type: functional, cell-based

SMILES	Activity
C#CCCCCC(C)CC(C)C(=O)N(C)[C@@H](Cc1ccccc1)C(=O)N[C@@H](C)C(=O)N(C)[C@@H](C)C(=O)N(C)[C@@H](Cc1ccc(OC)cc1)C(N)=O (some centres not stated) (X1-[NMeF]A[NMeA][NMeY](Me)-NH2)	inactive
COc1ccc(C[C@@H](C(N)=O)N(C)C(=O)[C@H](C)N(C)C(=O)[C@H](C)NC(=O)[C@H](Cc2ccccc2)N(C)C(=O)C(C)CC(C)CCCCC(C)=O)cc1 (some centres not stated) (X2-[NMeF]A[NMeA][NMeY](Me)-NH2)	inactive
